Test results taken from patent US6723702B2, “Use of relaxin treat diseases related to vasoconstriction” (RAS Medical, Inc., priority 2000, dated 2004).

Tests used:
[1] = test system: bFGF and VEGF protein staining, peri-infarct area of the heart; assay: Rat LCAL model: immunohistochemical analysis of the peri-infarct area; type: in vivo
Protocol: Immunohistochemical analysis of the peri-infarct area of the heart was performed as follows. Transverse sections from paraffin embedded hearts were obtained at 3 levels. Sections were stained with H&E to assess neovascularization. Slides of heart sections were deparaffinized in xylene and washed with ethanol. Slides were then rinsed in sterile double distilled water before proceeding with antigen retrieval, as recommended by the antibody vendor (Biogenex). Sections were incubated for 30 minutes in 1.5% normal goat blocking serum (Biogenex, San Ramon, Calif.) and washed three times for 5 minutes each with PBS. Sections were then incubated with a monoclonal antibody against VEGF (VEGF-C1), or a polyclonal antibody against bFGF (FGF-2-147) (both at 5 μg/ml), before washing with PBS. Primary, and anti-goat or anti-rabbit secondary antibodies were purchased from Santa Cruz Biotechnology (Santa Cruz, Calif.). Sections were then incubated in multilink, a biotinylated goat anti-immunoglobulin for use with mouse, rabbit, guinea pig and rat primary antibodies (Biogenex) for 30 minutes at room temperature, followed by washing twice for 10 minutes each with PBS. Sections were labeled with peroxidase conjugated streptavidin for 20 minutes before finally washing twice for 5 minutes with PBS and air-drying). […]

[2] = test system: rat aortic endothelial cells; assay: 3H-thymidine uptake, rat endothelial cells; type: cell-based; settings: serum-free medium
Protocol: Endothelial cells were derived from explant cultures of human neonatal foreskin and rat aorta. Primary human endothelial cells from umbilical vein, aorta, and lung were purchased from Clonetics-BioWhittaker Corporation (San Diego, Calif.) and cultured according to vendor instructions. ^3H-thymidine uptake was performed, as previously described, in serum-free medium. Unemori et al. (1994) Exp. Cell Res. 21:166-171.
Relaxin was then assayed for the ability to induce proliferation of endothelial cells directly. Relaxin's potential mitogenic effect was tested on human primary umbilical vein, aortic, foreskin, and pulmonary endothelial cells, as well as rat aortic endothelial cells. […] Alterations in other aspects of endothelial cell phenotype that are believed to correlate with angiogenesis were also tested. Relaxin had no effect on collagen expression, judged by SDS-PAGE of ^3H-proline-labeled cellular proteins; or metalloproteinase or tissue inhibitor of metalloproteinase-1 secretion, assessed by gelatin zymography. […] Therefore, relaxin had no apparent effect directly on endothelial cells.

[3] = test system: THP-1 cells; assay: THP-1 cells: secreted VEGF protein by ELISA; type: cell-based, human
Protocol: THP-1 cells were obtained from the American Type Culture Collection (ATCC# TIB202), and grown in Iscove's medium supplemented with 10% fetal bovine serum and 2 mM L-glutamine. For experiments, THP-1 cells were cultured at 5×10^5 cells/ml in 24-well plates, treated and allowed to incubate for various times at 37° C. Conditioned media and cells were then collected, and cells removed by centrifugation at 500 g for 5 min. Media were stored at −80° C. until assayed.
VEGF protein was quantified in an ELISA kit purchased from R & D Systems (Minneapolis, Minn.). The lower limit of sensitivity of the assay was 10 pg/ml.
Because macrophages are the inflammatory cells predominantly responsible for the angiogenic response that occurs during healing, a monocyte/macrophage cell line shown previously to bind relaxin with high affinity (THP-1) (Parsell et al. (1996) J. Biol. Chem. 271:27936-27941) was tested for relaxin inducibility of VEGF and bFGF. THP-1 cells were cultured in vitro, treated with relaxin (100 ng/ml) for 3 hours, and assayed for VEGF and bFGF mRNA induction. […] In order to determine whether the increase in VEGF mRNA observed following short-term relaxin treatment was reflected by an elevation in secreted VEGF protein, THP-1 cells were treated with relaxin (0.01-100 ng/ml) for 24 h, the conditioned media collected, and VEGF content in the media quantified by ELISA. […]

Substance: rhRLX: recombinant human relaxin, identical in amino acid sequence to the product of the human H2 gene; A chain of 24, B chain of 29 amino acids
- peri-infarct bFGF staining ([1]; 7 and 21 days, vs vehicle-treated hearts, blinded scoring): more intense
- intensity of VEGF staining ([1]; relaxin vs vehicle-treated hearts): No differences in intensity
- 3H-thymidine uptake [2]: did not alter
- VEGF protein secretion ([3]; 0.01-100 ng/ml for 24 h, dose-dependent): approximately 150%
- threshold relaxin concentration required for stimulation of VEGF protein secretion ([3]; 24 h): 0.2 to 1.0 ng/mL
